This note sets out measurements from ChEMBL document CHEMBL4765266, “Design, synthesis and structure-activity relationships of 4-phenyl-1H-1,2,3-triazole phenylalanine derivatives as novel HIV-1 capsid inhibitors with promising antiviral activities” (Eur J Med Chem, 2020).

The test system of series [1] is Human immunodeficiency virus 1. The series is described as follows: Antiviral activity against HIV1 NL4-3 infected in human TZM-bl cells assessed as reduction in virus induced cytopathic effect measured after 2 days by luciferase gene expression assay. The conditions noted are these: Human immunodeficiency virus 1, NL4-3, TZM-bl, 48 h. The class given is functional, organism-based. A general note: Damage to the host cells serves as the signal in cytopathic effect assays.

The nature of a further series: in vitro. The conditions noted are these: human, TZM-bl cells.
The next series relates to TZM. The experiment in a line: Cytotoxicity against in human TZM-bl cells assessed as reduction in cell viability measured after 2 days by CytoTox-Glo cytotoxicity assay. The conditions noted are these: 48 h.

As a reminder, the EC50 is the midpoint of the concentration-response curve. A word on the CC50: it is the concentration that lowers cell viability or growth by half.

The structures appear in SMILES notation.

Description for in vitro: Selectivity index, ratio of CC50 for human TZM-bl cells to EC50 for HIV1 NL4-3 infected in human TZM-bl cells

In the case of `COc1ccc(N(C)C(=O)[C@H](Cc2ccccc2)NC(=O)Cn2cc(-c3ccccc3NC(=O)c3cccc(OC)c3)nn2)cc1`, the EC50 in series [1] was found to be 12.8 µM. Also, the selectivity ratio in the series “in vitro” was above 1.27. For the same compound, in the series with TZM, the CC50 was above 16.2 µM.

In the case of `COc1ccc(N(C)C(=O)[C@H](Cc2ccccc2)NC(=O)Cn2cc(-c3ccc(NC(=O)c4ccc(-c5ccccc5)cc4)cc3)nn2)cc1`, in series [1], the EC50 worked out at 12.2 µM. In addition, in the series “in vitro”, the selectivity ratio is above 1.23. Besides, the 50% cytotoxic concentration (CC50) in the series on TZM is above 15 µM.

For the compound `COc1ccc(N(C)C(=O)[C@H](Cc2ccccc2)NC(=O)Cn2cc(-c3ccccc3NC(=O)c3ccc(-c4ccccc4)cc3)nn2)cc1`, the EC50 in series [1] is above 15 µM. In addition, in the series with TZM, the CC50 was above 15 µM.

Take `COc1ccc(N(C)C(=O)[C@H](Cc2ccccc2)NC(=O)Cn2cc(-c3ccc(NC(=O)c4ccc(C)cc4)cc3)nn2)cc1`: the EC50 in series [1] was above 16.6 µM. Moreover, in the series with TZM, the half-maximal cytotoxic concentration (CC50) was above 16.6 µM.

Take `COc1ccc(N(C)C(=O)[C@H](Cc2ccccc2)NC(=O)Cn2cc(-c3cccc(NC(=O)c4ccccc4OC)c3)nn2)cc1`: the EC50 in series [1] is above 16.2 µM. The CC50 in the series on TZM was above 16.2 µM.

On to `COc1ccc(N(C)C(=O)[C@H](Cc2ccccc2)NC(=O)Cn2cc(-c3ccc(NC(=O)c4ccccc4OC)cc3)nn2)cc1`, for which the EC50 in series [1] is above 16.2 µM. In addition, the CC50 in the series with TZM was above 16.2 µM.

`COc1ccc(N(C)C(=O)[C@H](Cc2ccccc2)NC(=O)Cn2cc(-c3ccccc3NC(=O)c3ccc(C#N)cc3)nn2)cc1`: in series [1], the EC50 is above 16.3 µM. For the same compound, the CC50 in the series on TZM was above 16.3 µM.

On to `COC(=O)c1ccc(C(=O)Nc2ccccc2-c2cn(CC(=O)N[C@@H](Cc3ccccc3)C(=O)N(C)c3ccc(OC)cc3)nn2)cc1`, for which the EC50 in series [1] is above 15.5 µM. Moreover, in the series with TZM, the CC50 was above 15.5 µM.

As to `COc1ccc(N(C)C(=O)[C@H](Cc2ccccc2)NC(=O)Cn2cc(-c3ccc(NC(=O)c4cccc(OC)c4)cc3)nn2)cc1`, the EC50 in series [1] is above 16.2 µM. For the same compound, in the series with TZM, the CC50 is above 16.2 µM.

Take `COc1ccc(N(C)C(=O)[C@H](Cc2ccccc2)NC(=O)Cn2cc(-c3ccc(NC(C)=O)cc3)nn2)cc1`: the EC50 in series [1] was above 19 µM. The CC50 in the series with TZM is above 19 µM.

On to `COc1ccc(N(C)C(=O)[C@H](Cc2ccccc2)NC(=O)Cn2cc(-c3ccccc3NC(=O)c3ccc(C)cc3)nn2)cc1`, for which the EC50 in series [1] was above 16.6 µM. Besides, the CC50 in the series on TZM was above 16.6 µM.

Consider `COc1ccc(C(=O)Nc2cccc(-c3cn(CC(=O)N[C@@H](Cc4ccccc4)C(=O)N(C)c4ccc(OC)cc4)nn3)c2)cc1`, for which the 50% effective concentration (EC50) in series [1] was above 16.2 µM. For the same compound, the CC50 with TZM was above 16.2 µM.

For `COc1ccc(C(=O)Nc2ccccc2-c2cn(CC(=O)N[C@@H](Cc3ccccc3)C(=O)N(C)c3ccc(OC)cc3)nn2)cc1`, in series [1], the concentration giving a half-maximal response (EC50) was above 16.2 µM. In the series with TZM, the CC50 is above 16.2 µM.

For `COc1ccc(N(C)C(=O)[C@H](Cc2ccccc2)NC(=O)Cn2cc(-c3cccc(NC(=O)c4cccc(OC)c4)c3)nn2)cc1`, the EC50 in series [1] is above 16.2 µM. The CC50 in the series with TZM is above 16.2 µM.

On to `COc1ccc(N(C)C(=O)[C@H](Cc2ccccc2)NC(=O)Cn2cc(-c3cccc(NC(=O)c4ccc(-c5ccccc5)cc4)c3)nn2)cc1`, for which the EC50 in series [1] is above 15 µM. In addition, in the series with TZM, the CC50 is above 15 µM.

As for `COc1ccc(C(=O)Nc2ccc(-c3cn(CC(=O)N[C@@H](Cc4ccccc4)C(=O)N(C)c4ccc(OC)cc4)nn3)cc2)cc1`, in series [1], the EC50 is above 16.2 µM. Besides, in the series with TZM, the CC50 is above 16.2 µM.

Consider `COC(=O)c1ccc(C(=O)Nc2cccc(-c3cn(CC(=O)N[C@@H](Cc4ccccc4)C(=O)N(C)c4ccc(OC)cc4)nn3)c2)cc1`, for which, in series [1], the EC50 is above 15.5 µM. For the same compound, in the series on TZM, the CC50 is above 15.5 µM.

As for `COC(=O)c1ccc(C(=O)Nc2ccc(-c3cn(CC(=O)N[C@@H](Cc4ccccc4)C(=O)N(C)c4ccc(OC)cc4)nn3)cc2)cc1`, the EC50 in series [1] is above 15.5 µM. In addition, the CC50 in the series with TZM is above 15.5 µM.

Regarding `COc1ccc(N(C)C(=O)[C@H](Cc2ccccc2)NC(=O)Cn2cc(-c3cccc(NC(=O)c4ccc(C)cc4)c3)nn2)cc1`, the EC50 in series [1] is above 16.6 µM. Further, the CC50 in the series on TZM is above 16.6 µM.

Turning to `COc1ccc(N(C)C(=O)[C@H](Cc2ccccc2)NC(=O)Cn2cc(-c3cccc(NC(=O)c4ccc(F)cc4)c3)nn2)cc1`, the EC50 in series [1] was above 16.5 µM. The half-maximal cytotoxic concentration (CC50) in the series with TZM was above 16.5 µM.
